{"source": "patent US20170000804A1", "about": "“Methods and Compositions for Inhibiting Mitochondrial Trafficking” (The Wistar Institute of Anatomy and Biology, priority 2015, published 2017)", "key": {"PC3 cells [1]": {"test_system": "PC3 cells", "test": "Tumor cell invasion across Matrigel-coated Transwell inserts", "assay_type": "cell-based, human", "settings": "for effect on tumor cell invasion in the presence of PI3K therapy: with PX-866, Matrigel, Antimycin A 30 μM, Oligomycin 2.5 μM, Rotenone 4 μM, CCCP 12.5 μM", "protocol": "Tumor cell invasion: Experiments were carried out essentially as described (41). Briefly, 8 μm PET transwell migration chambers (Corning) were coated with 150 μl of 80 μg/ml Matrigel (Becton Dickinson). Tumor cells were seeded in duplicates onto the coated transwell filters at a density of 1.25×10^5 cells/well in media containing 2% FCS (FCIII, Hyclone) and media containing 20% FCS was placed in the lower chamber as chemoattractant. Cells were allowed to invade and adhere to the bottom of the plate stained in 0.5% crystal violet/methanol for 10 min, rinsed in tap water and analyzed by bright field microscopy. Digital images were batch imported into ImageJ, thresholded and analyzed with the Analyze particles function. For analysis of tumor cell invasion in 3D spheroids, tissue culture-treated 96-well plates were coated with 50 μl 1% DIFCO Agar Noble (Becton Dickinson). LN229 cells were seeded at 5,000 cells/well and allowed to form spheroids over 72 h. Spheroids were harvested, treated with PX-866 (0-10 µM) and placed in a collagen plug containing EMEM, FBS, L-Glutamine, sodium bicarbonate, and collagen type I (Gibco, 1.5 mg/ml). The collagen plug was allowed to set and 1 ml DMEM with 5% FBS was added to the top of the plug. Cell invasion was analyzed every 24 h and quantified using Image Pro Plus 7, as described^41.\nCell culture and drug treatment: Human GBM LN229, prostate adenocarcinoma PC3, lung carcinoma A549, and mouse fibroblasts NIH3T3 cells were obtained from the American Type Culture Collection (ATCC, Manassas, Va.), and maintained in culture according to the supplier's specifications. Conditioned media was prepared from exponentially growing cultures of NIH3T3 cells as previously described^41, in DMEM supplemented with 4.5 g/l D-glucose, sodium pyruvate, 10 mM HEPES and 10% FBS for 48 h. Where indicated, starvation was carried out in DMEM without glucose for 24 h. PI3K inhibitors were dissolved in DMSO at 10 mM and added to the culture media for 48 h at the following concentrations: AZD6482 at 10 μM, GCD0941 at 2 μM, BKM120 at 0.4 μM and PX-866 at 5 μM. mitoTEMPO was added to the culture media at 50-100 μM, NAC at […], Antimycin A at 30 μM, Oligomycin at 2.5 μM, Rotenone at 4 μM and CCCP at 12.5 μM. For invasions, the antioxidants, ROS scavengers, and ETC inhibitors were added to the top and bottom of the chambers at the moment of cell seeding."}, "PC3 cells [2]": {"test_system": "PC3 cells", "test": "Mitochondrial localization by fluorescence microscopy", "assay_type": "cell-based, human", "settings": "for effect on mitochondrial repositioning to the cortical cytoskeleton in the presence of PI3K therapy: with PX-866, Antimycin A 30 μM, Oligomycin 2.5 μM, Rotenone 4 μM, CCCP 12.5 μM", "protocol": "Mitochondrial localization. After the indicated transfections or treatments, cells were stained with MitoTracker Red CMXRos (100 nM, 2 h) at 37° C. After fixation with 4% formalin in PBS for 15 min at room temperature, cells were permeabilized with 0.1% Triton X-100/PBS for 5 min, washed, and incubated 30 min with 1% BSA/0.3M glycine/PBS. F-actin was stained with phalloidin Alexa488 (1:1000 dilution) for 30 min at room temperature. Slides were washed and mounted in DAPI-containing Prolong Gold mounting medium (Invitrogen). At least 7 random fields were analyzed by fluorescence microscopy in a Nikon E600 microscope. Composite images were analyzed in Image J, for each cell two lamellipodia were measured to calculate infiltration index, defined as the radial distance from nucleus to furthest mitochondrial string, normalized to the radial distance from nucleus to cell border. In parallel, all cells on the 7 fields were scored into 3 categories, according to gross localization of mitochondria: polarized, pen-nuclear, and infiltrating. For cortical mitochondria quantification, a mask was manually created around the periphery of the cell based on the F-actin channel and subsequently applied to the mitochondria channel to measure intensity at the cortical region (FIG. 8H). The intensity was normalized to total mitochondria intensity per cell and background subtracted. A minimum of 20 cells were analyzed in each independent experiment to obtain mean values. For high resolution imaging of mitochondria in MFN1-depleted cells, slides were sequentially scanned for red, green, and blue fluorescence by a Leica SP5 confocal microscope with a 63× objective and a 20× digital zoom. Full cell z stacks (about 5-8 μm) were postprocessed in Leica Application Suite Advanced Fluorescence (LAS AF) to reduce noise by applying a median filter (two iterations, radius 3) and used to generate max projections."}, "[3]": {"test_system": "patient-derived glioblastoma (GBM) organotypic cultures", "test": "Kinome profiling (OpenArray real-time PCR) of GBM organotypic cultures", "assay_type": "cell-based, human", "settings": "PX-866 10 μM for 48 h vs vehicle", "protocol": "(§1) Organotypic cultures: Short-term organotypic cultures from primary patient samples were established as described^13. Briefly, precise thick tissue slices (300 μm) were obtained by vibratome serial cutting (VT1200, Leica Microsystems, Milan, Italy), and cultured in six-well plates on organotypic inserts (Millicell PICM ORG, Merck Millipore) for up to 48 h in 1 ml of Ham-F12 complete medium supplemented with vehicle (DMSO, 2.5 μl) or pan-PI3K inhibitor […] (10 μM). At the end of the experiment, one tissue slice per condition was formalin-fixed and paraffin-embedded, and further processed for morphological and immunohistochemical analysis. An additional tissue slice was embedded in OCT, and snap-frozen for molecular or immunofluorescence studies.\nKinome profiling and bioinformatics analysis. Transcriptional changes in the human kinome following PI3K inhibition were analyzed using OpenArray real-time PCR amplification. […] The ΔΔCt method was used to calculate fold changes between sample pairs with endogenous control Ct value calculated as average among 15 endogenous controls on the array: ALAS1, B2M, CASC3, G6PD, GAPDH, GUSB, HMBS, HPRT1, IPO8, POLR2A, PPIA, RPLP0, TFRC, UBE2D2, and YWHAZ. The p values for differential expression were calculated using fold changes of 15 endogenous controls as a null distribution."}, "GBM organotypic cultures": {"test_system": "GBM organotypic cultures", "test": "Human phospho-RTK array, GBM organotypic cultures", "assay_type": "cell-based", "settings": "primary organotypic cultures, PX-866 10 μM for 48 h", "protocol": "(§2) The position and identity of phosphorylated proteins are indicated. M, markers.\nas §1"}, "GBM LN229 cells": {"test_system": "GBM LN229 cells", "test": "Human phospho-RTK array, LN229 cells", "assay_type": "cell-based", "settings": "PX-866 10 μM for 48 h", "description": "as §2"}, "PC3 cells [4]": {"test_system": "PC3 cells", "test": "Detection of mitochondrial superoxide in live cells (MitoSOX Red)", "assay_type": "cell-based, human", "settings": "PX-866 48 h with mitoTEMPO", "protocol": "Detection of mitochondrial superoxide in live cells. The production of superoxide by mitochondria was visualized in fluorescence microscopy using the MitoSOX™ Red reagent. Briefly, 1.5×10^4 cells were grown on high optical quality 8 well μ-slides (Ibidi) and imaged with a 40× objective on a Nikon TE300 inverted time-lapse microscope equipped with a video system containing an Evolution QEi camera and a time-lapse video cassette recorder. The atmosphere was equilibrated to 37° C. and 5% CO2 in an incubation chamber. Phase contrast and TRITC (TRITC filter cube, excitation wavelength: 532-554 nm, emission wavelength: 570-613 nm) images were captured. To quantitate superoxide levels, files were imported into Image J, masks were manually created around the periphery of the cell based on the Phase image and subsequently applied to the TRITC channel to measure intensity. A minimum of 100 cells were analyzed in each independent experiment to obtain mean values."}, "[5]": {"test_system": "patient-derived GBM neurospheres", "test": "GBM neurosphere formation (number and size)", "assay_type": "cell-based, human", "settings": "Gamitrinib 5 μM plus PX-866 10 μM, 48 h", "protocol": "GBM neurospheres: Fresh GBM specimens collected from consenting patients (Division of Neurosurgery, Fondazione IRCCS Ca′ Granda, Milan, Italy) were immediately processed for the isolation of stem cell-containing neurospheres. Briefly, tissues were enzymatically processed with the Tumor Dissociation Kit (Miltenyi Biotech) at 37° C. in combination with the gentleMACS™ Dissociators (Miltenyi Biotech) until achievement of single cell suspension. Then, dissociated GBM cells were grown as spheroid aggregates (neurospheres) as previously described^43 and using the NeuroCult NS-A Proliferation media (StemCell Technologies) supplemented with 20 ng/ml EGF and 10 ng/ml bFGF (Stem Cell Technologies) according to manufacturer's protocol. When pharmacological treatment was performed, neurospheres derived from five GBM patients were mechanically dissociated, stained with PKH26 (Sigma Aldrich) as described^44, and plated at a density of 1000 cells per well in 24-well plates. The intended use of the non-toxic dye PKH26 was for live cell identification and staining. […] During this interval, neurospheres were imaged every 24 h and their size (diameter) and number was assessed by direct counting using ImageJ software. PKH26 was monitored and recorded using the TRITC fluorescent filter. Experiments were performed in duplicates. […]"}, "PC3 cells [6]": {"test_system": "PC3 cells", "test": "Focal adhesion (FA) complexes and mitochondria dual labeling", "assay_type": "cell-based, human", "settings": "non-toxic concentrations of Gamitrinib (1 μM), 48 h", "protocol": "Focal adhesion (FA) complexes and mitochondria dual labeling. Coverslides were coated with fibronectin (10 μg/ml in PBS) overnight at 4° C., rinsed in PBS and equilibrated at 37° C. with 500 μl of 10% FBS/RPMI. Cells were treated as indicated, tripsinized, washed with 10% FBS/RPMI and plated on fibronectin-coated slides, in the presence of Mitotracker Red CMXRos (100 nM). After 5 h, cells were fixed with 10% formalin in PBS for 15 min at room temperature, permeabilized with 0.1% Triton X-100/PBS for 5 min, washed, and FAs were labeled with primary antibodies diluted in 1% BSA/0.3M glycine/PBS, overnight at 4° C. Either one of the following antibodies were used: rabbit anti-pY925-FAK (1:50, Cell Signaling), mouse anti-Paxillin (1:100, Upstate). Next, slides were washed, incubated with secondary antibodies (1:500, Alexa Fluor 488 conjugated) for 1 h at room temperature, washed and mounted in DAPI-containing Prolong Gold mounting medium (Invitrogen). Slides were sequentially scanned for red, green and blue fluorescence in a Leica SP5 confocal microscope with a 100× objective. Libraries were imported into LASLite and a 3 step z-stack centered at the plane of focal adhesions (±0.5 μm) were used to generate 3D max projections."}}, "data": [{"compound": "CC(=O)N[C@@H](CS)C(=O)O", "note": "[NAC, N-acetyl cysteine]", "values": [{"measurement": "effect on PI3K therapy-mediated tumor cell invasion", "setting": "PC3 cells [1]; increasing concentrations of NAC with PX-866 48 h, Matrigel", "value": "had no effect"}]}, {"compound": "CC[C@H]1/C=C/C=C/C[C@@H](C)[C@H](O)[C@@](C)(O)C(=O)[C@@H](C)[C@H](O)[C@@H](C)C(=O)[C@@H](C)[C@H](O)[C@@H](C)/C=C/C(=O)O[C@@H]2[C@H](C)[C@H](CC1)O[C@]1(CC[C@H](C)[C@H](C[C@@H](C)O)O1)[C@H]2C", "note": "[Oligomycin]", "values": [{"measurement": "effect on tumor cell invasion in the presence of PI3K therapy", "setting": "PC3 cells [1]", "value": "inhibited"}, {"measurement": "effect on mitochondrial repositioning to the cortical cytoskeleton in the presence of PI3K therapy", "setting": "PC3 cells [2]", "value": "inhibited"}]}, {"compound": "C=CCN(/C=C1/C(=O)O[C@H](COC)[C@@]2(C)C1=C(O)C(=O)C1=C2[C@H](OC(C)=O)C[C@]2(C)C(=O)CC[C@@H]12)CC=C", "note": "[PX-866]", "values": [{"measurement": "transcriptional changes of growth factor receptor pathways (kinome)", "setting": "[3]", "value": "transcriptional upregulation of multiple growth factor receptor pathways"}, {"measurement": "phosphorylation, i.e. activation of the GBM kinome", "setting": "GBM organotypic cultures", "value": "widespread phosphorylation"}, {"measurement": "phosphorylation, i.e. activation of the GBM kinome", "setting": "GBM LN229 cells", "value": "widespread phosphorylation"}]}, {"compound": "C=C(C)[C@H]1Cc2c(ccc3c2O[C@@H]2COc4cc(OC)c(OC)cc4[C@@H]2C3=O)O1", "note": "[Rotenone]", "values": [{"measurement": "effect on tumor cell invasion in the presence of PI3K therapy", "setting": "PC3 cells [1]", "value": "inhibited"}, {"measurement": "effect on mitochondrial repositioning to the cortical cytoskeleton in the presence of PI3K therapy", "setting": "PC3 cells [2]", "value": "inhibited"}]}, {"compound": "CC1(C)CC(NC(=O)C[P+](c2ccccc2)(c2ccccc2)c2ccccc2)CC(C)(C)N1[O]", "note": "[mitoTEMPO]", "values": [{"measurement": "effect on tumor cell invasion mediated by PI3K inhibitors", "setting": "PC3 cells [1]; mitoTEMPO with PX-866, Matrigel", "value": "did not affect"}, {"measurement": "effect on mitochondrial repositioning to the cortical cytoskeleton mediated by PI3K inhibitors", "setting": "PC3 cells [2]; mitoTEMPO 50 μM with PI3K inhibitors", "value": "did not affect"}, {"measurement": "effect on PI3K antagonist-induced mitochondrial superoxide production", "setting": "PC3 cells [4]", "value": "abolished"}]}, {"compound": "Antimycin A", "values": [{"measurement": "effect on tumor cell invasion in the presence of PI3K therapy", "setting": "PC3 cells [1]", "value": "inhibited"}, {"measurement": "effect on mitochondrial repositioning to the cortical cytoskeleton in the presence of PI3K therapy", "setting": "PC3 cells [2]", "value": "inhibited"}]}, {"compound": "Gamitrinib", "values": [{"measurement": "effect on increase in tumor cell invasion mediated by PI3K antagonists", "setting": "PC3 cells [1]; Gamitrinib with PX-866 5 μM, Matrigel", "value": "abolished the increase"}, {"measurement": "effect on expansion of primary GBM neurospheres mediated by PI3K antagonists", "setting": "[5]", "value": "abolished"}, {"measurement": "mitochondrial distribution (polarized, perinuclear, infiltrating) with PI3K inhibitors", "setting": "PC3 cells [2]; Gamitrinib in combination with PI3K inhibitors", "value": "preserved a polarized and perinuclear mitochondrial distribution"}, {"measurement": "effect on trafficking of mitochondria to pFAK-containing FA complexes in response to PI3K antagonists", "setting": "PC3 cells [6]", "value": "abolished"}]}, {"compound": "carbonyl cyanide m-chlorophenyl hydrazine [CCCP]", "values": [{"measurement": "effect on tumor cell invasion in the presence of PI3K therapy", "setting": "PC3 cells [1]", "value": "inhibited"}, {"measurement": "effect on mitochondrial repositioning to the cortical cytoskeleton in the presence of PI3K therapy", "setting": "PC3 cells [2]", "value": "inhibited"}]}]}
